1 substance from patent US20230313181A1, “HISTIDINE-LYSINE POLYMERS AND METHODS FOR DELIVERING MRNA USING THE SAME” (UNIVERSITY OF MARYLAND, BALTIMORE, priority 2019, published 2023) can be followed below.

Data set [1] concerns MDA-MB-231 cells. As to the kind of experiment: In vitro mRNA transfection with HK polyplexes (luciferase mRNA, luciferase activity). The following applies: for RLU/μg-Protein (luciferase activity): mRNA 1 μg, 24 h. The data set is classed as cell-based. On the procedure:
FIG. 1. Comparison of H3K(+H)4b and H3K4b peptides as carriers of mRNA. To form the HK polyplexes, the mRNA (1 μg) was mixed with 3 different ratios of the HK ([…]) polymer for 30 minutes. The HK polyplexes were then added to the cells for 24 h before the luciferase activity was measured. ****, H3K(+H)4b vs H3K4b, P<0.0001.
In vitro mRNA Transfection. Several HK polymers were examined for their ability to carry a luciferase-expressing mRNA (CleanCap Firefly Luciferase mRNA, Trilink Biotechnologies, Inc, San Diego, CA) into MDA-MB-231 cells (America Type Tissue Culture, Manassas, VA). In brief, 3×10^4 cells were plated into a 24-well plate containing 500 μl of DMEM and 10% fetal bovine serum (ThermoFisher Scientific, Waltham, MA). After 24 h, when the cells were 60 to 80% confluent, the media in each well was changed to Opti-MEM (ThermoFisher Scientific). To prepare HK polyplexes, mRNA (1 μg) in 50 μl of Opti-MEM was briefly mixed well with one of the HK polymers (4 to 12 μg) and maintained at room temperature for 30 min. This polyplex was then added dropwise to the cells. After four h, the Opti-MEM media was removed and replaced with 0.5 ml of DMEM/10% serum (0.5 ml). Twenty-four hours later, the cells were lysed, and the luciferase activity (Promega Corporation, Madison, WI) was measured.
To obtain the data in Table 4, luciferase-expressing mRNA (1 μg) in 50 μl of Opti-MEM was briefly mixed with one of the HK polymers (4, 8, or 12 μg) and maintained at room temperature for 30 min. The resulting polyplexes were added dropwise to the MDA-NM-231 cells and after four h, the Opti-MEM media was removed and replaced with DMEM/10% serum. Twenty-four hours later, the cells were lysed, and the luciferase activity was measured

The nature of data set [2]: Acid-base titration of HK polymer solutions. Format: physicochemical. The following applies: pH titration curves, 5 mg/ml. On the procedure:
FIG. 2. Titration of different HK peptide solutions. Solutions of polymers (5 mg/ml) (H2K4b, H3K4b, H3K(+H)4b, and H4K4b) were adjusted to pH 3 (initial volume—1 ml) and then […] aliquots of 0.05 N NaOH were stepwise added and the pH measured.
Acid-Base Titration. After polymer solutions (e.g. containing one or more of H2K4b, H3K4b, H3K(+H)4b, and H4K4b) were adjusted to pH 3.0 (5 mg/mil; initial volume—1 mil), aliquots (5 μl) of NaOH (0.05 N) were stepwise added with the pH measured (FiveEasy™ meter; InLab Solids Pro-ISM pH electrode, Mettler Toledo, Columbus, OH). Titration was stopped at about pH 9.0.

The nature of data set [3]: Cell viability assay (trypan blue exclusion). The note with it: human, MDA-MB-231 cells, HK polymer 4 μg or polyplex (4 μg HK; 1 μg mRNA), then 19 h DMEM/10% FBS. Format: cell-based. Here is the method: Cell Viability Assay. MDA-MB-231 cells were seeded at 5.0×10^4/well in a 24-tissue culture plate and incubated overnight in DMEM supplemented with 10% FBS serum. The media was then changed to Opti-MEM and the cells were treated with either the HK polymer (4 μg) or the HK polyplex (4 μg HK; 1 μg mRNA) for 5 h. After the media was changed to DMEM/10% FBS for 19 h, the cell viability was measured using the trypan blue cell exclusion assay (Trypan Blue solution, 0.4%, Sigma-Aldrich, St. Louis, MO).
After the medium was changed to Opti-MEM in cell cultures of the MDA-MB-231 cells used in the experiment described above, either the HK polymer (4 μg) or the HK polyplex (4 μg HK; 1 μg mRNA) was added dropwise to the cells and incubated for 5 h. The media was then changed to DMEM/10% FBS for 19 h and cell viability was determined using the trypan cell exclusion assay.

Bridges are numbered along the chain shown (N, C = ends). Roman numbers before positions name the chains, in order. Where no end group is shown, it is not given here.

The viability is the share of living cells, or the viability signal relative to a control. A low value points to a greater loss of cells. In the case of “I: KHHHKHHHKHHHHKHHHKKKK-NH2 / II: KHHHKHHHKHHHHKHHHK / III: KHHHKHHHKHHHHKHHHK / IV: KHHHKHHHKHHHHKHHHK (amide I:19-IV:C, I:20-III:C, I:21-II:C) [H3K(+H)4b]”, the “luciferase expression, fold greater than with H3K4b” value in data set [1] (4:1 ratio (HK:mRNA; wt:wt)) turned out to be 10 fold. Moreover, the “effectiveness as carrier of mRNA (in words)” value in data set [1] (luciferase mRNA, HK polyplex) is “markedly better as a carrier of mRNA”. For the same substance, the “RLU/μg-Protein (luciferase activity)” value in data set [1] (ratio mRNA:polymer 1:4 (wt:wt)) is reported as 1532.9 ± 122.9 RLU/μg-Protein; in data set [1] (ratio mRNA:polymer 1:8 (wt:wt)), 1656.3 ± 202.5 RLU/μg-Protein; in data set [1] (ratio mRNA:polymer 1:12 (wt:wt)) it was 1033.4 ± 197^ RLU/μg-Protein. In data set [2], the “buffering profile / buffering capacity (in words)” value is reported as “minimal differences in their buffering profile”. This substance gave a viability at 5 h in data set [3] of 96.3%.
